Assay results published in ChEMBL document CHEMBL1201862, “PubChem BioAssay data set” (2004).
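Interpolation was linear, between the two tested concentrations surrounding the appropriate level; five concentrations were tested over 48 hours in 96-well plates. GI50 is the concentration that inhibits growth by half.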 Activity calls are given as the source filed them. No stated cut-off is given here; in the data, active = GI50 up to about 1.1 µM and inactive = higher.

Experiments:
Assay in all cases: NCI anticancer screen, dose series, 48 h
[1] = tested on: OVCAR-4
[2] = tested on: NCI-H23
[3] = tested on: NCI/ADR-RES
[4] = tested on: HOP-92
[5] = tested on: NCI-H226
[6] = tested on: IGROV-1
[7] = tested on: OVCAR-5
[8] = tested on: OVCAR-8
[9] = tested on: HT-29
[10] = tested on: SK-OV-3
[11] = tested on: A549
[12] = tested on: RXF 393
[13] = tested on: UACC-62
[14] = tested on: SK-MEL-5
[15] = tested on: Malme-3M
[16] = tested on: SW-620
[17] = tested on: COLO 205
[18] = tested on: LOX IMVI
[19] = tested on: 786-0
[20] = tested on: DMS-114

Measured: GI50

Cc1cc2ccccc2n1CC(=O)N1CCCC1
inactive: [1] > 100 µM | [2] > 100 µM | [3] > 100 µM | [4] > 100 µM | [5] > 100 µM | [6] > 100 µM | [7] > 100 µM | [8] > 100 µM | [9] > 100 µM | [10] > 100 µM | [11] > 100 µM | [12] > 100 µM | [13] > 100 µM | [14] > 100 µM | [15] > 100 µM | [16] > 100 µM | [17] > 100 µM | [18] > 100 µM | [19] > 100 µM

CC12CC(c3ccccc3O1)C(C(=O)Nc1nccs1)C(=O)N2 (stereo unspecified)
inactive: [1] > 100 µM | [2] > 100 µM | [3] > 100 µM | [4] 84.3 µM | [5] > 100 µM | [6] > 100 µM | [7] > 100 µM | [8] > 100 µM | [9] > 100 µM | [10] > 100 µM | [11] > 100 µM | [12] > 100 µM | [13] > 100 µM | [14] > 100 µM | [15] > 100 µM | [16] > 100 µM | [17] > 100 µM | [18] > 100 µM | [19] > 100 µM

CN(C)c1ccc(/C=C2\Cc3ccccc3C2=O)cc1Br
inactive: [1] 41.8 µM | [2] 39.2 µM | [6] > 100 µM | [20] 29.6 µM | [7] 79.1 µM | [8] 63.5 µM | [9] 34.8 µM | [10] > 100 µM | [11] 61.4 µM | [13] 59.8 µM | [14] 26.4 µM | [15] 31.8 µM | [16] 59.3 µM | [17] 92.9 µM | [19] 54.1 µM

CCCCC1Cc2cc(O)ccc2-c2nc3cc(O)ccc3n21.CCCCC1Cc2cc(O)ccc2-c2nc3ccc(O)cc3n21 (stereo unspecified)
inactive: [1] 7.45 µM | [2] 21.9 µM | [3] 18.6 µM | [4] 4.28 µM | [5] 18.4 µM | [6] 13 µM | [7] 16.6 µM | [8] 21.4 µM | [9] 16.3 µM | [10] 18.5 µM | [11] 16.3 µM | [12] 19.1 µM | [13] 12.8 µM | [14] 13.5 µM | [15] 21.8 µM | [16] 16.9 µM | [17] 15.7 µM | [18] 16.8 µM | [19] 19 µM

O=C(Nn1c(-c2ccccc2)nc2ccccc2c1=O)c1ccccc1O
inactive: [1] 30.7 µM | [2] 34.4 µM | [3] 34.4 µM | [4] 27.2 µM | [5] 38.9 µM | [6] 32.2 µM | [7] 49.4 µM | [8] 38.5 µM | [9] 61.2 µM | [10] 58.9 µM | [11] 36.8 µM | [12] 28.2 µM | [13] 23.4 µM | [14] 19.4 µM | [15] 25.7 µM | [16] 41.2 µM | [17] 67.3 µM | [18] 48.6 µM | [19] 65.2 µM

COc1ccc2c(c1)CCC(CN1CCN(CCOC(c3ccc(F)cc3)c3ccc(F)cc3)CC1)=C2
inactive: [1] 24.8 µM | [2] 14.8 µM | [3] 11.8 µM | [4] 16.1 µM | [5] 13 µM | [6] 28.1 µM | [7] 23.1 µM | [8] 18.8 µM | [9] 4.53 µM | [10] > 100 µM | [11] 27.5 µM | [12] 11.2 µM | [13] 16.1 µM | [14] 5.22 µM | [15] 14.4 µM | [16] 22.9 µM | [17] 2.14 µM | [18] 15.6 µM | [19] 11.9 µM

Cn1c(=O)c2c(ncn2CCCCn2ccnc2[N+](=O)[O-])n(C)c1=O
inactive: [1] > 100 µM | [2] > 100 µM | [5] > 100 µM | [6] > 100 µM | [20] > 100 µM | [7] > 100 µM | [8] > 100 µM | [9] > 100 µM | [11] > 100 µM | [12] > 100 µM | [13] > 100 µM | [14] > 100 µM | [15] > 100 µM | [16] > 100 µM | [17] > 100 µM | [18] > 100 µM | [19] > 100 µM

Sc1nn2c(Cc3ccccc3)nnc2s1
inactive: [1] > 100 µM | [2] > 100 µM | [3] > 100 µM | [4] > 100 µM | [5] 89.9 µM | [6] > 100 µM | [7] > 100 µM | [8] > 100 µM | [9] > 100 µM | [10] > 100 µM | [11] > 100 µM | [12] > 100 µM | [13] > 100 µM | [14] > 100 µM | [15] > 100 µM | [16] > 100 µM | [17] > 100 µM | [18] > 100 µM | [19] > 100 µM
